Activity calls are given as the source filed them. No cut-off for these calls is given here.
Test system: Mycobacterium thermoresistibile
Assay: Covalent binding affinity to Mycobacterium thermoresistibile IMPDH deltaCBS variant assessed as adduct formation at Cys341 by measuring 330 Da shift of increment in protein mass measured under denaturing conditions by ESI-MS spectral analysis

O=P(O)(O)OC[C@H]1O[C@@H](n2cnc3c(Cl)ncnc32)[C@H](O)[C@@H]1O
Activity: Active
